Measurements taken from US20190153538A1, “GENE EXPRESSION BIOMARKERS FOR PERSONALIZED CANCER CARE TO EPIGENETIC MODIFYING AGENTS” (Oryzon Genomics, S.A., priority 2015, published 2019).
Where a name gives a salt, the structure may show the parent alone.

Assays:
[1] = test system: H510A xenograft; assay: In vivo tumor growth inhibition, NCI-H510A xenograft model; design: species or system athymic nude mice; details: 40 μg per kg five days on/two days off, after 21 days of dosing, compared to untreated controls
Experimental: 7-8-week old athymic nude mice animals were injected with 5×10^6 H510A cells resuspended in 100 μL of 1:1 mixture of Matrigel® matrix (Corning Inc., Tewksbury/MA, C. S. Hughes et al., Proteomics (2010) 10(9):1886-90) and PBS. Tumors were staged at 200-300 mm^3 animals and distributed into dosing groups. (trans)-N1-((1R,2S)-2-phenylcyclopropyl)cyclohexane-1,4-diamine was administered at a dose of 40 μg per kg (upk) five days on/two days off until end of study. Tumor volume was measure biweekly using a digital caliber. The study was concluded when mean tumor volume within control group reached 2000 mm^3 or 28 days post-staging. Statistical analysis was performed using unpaired t-test.

[2] = test system: 19 small cell lung cancer cell lines; assay: Cell response to LSD1 inhibition: compound potency determination in SCLC cell line panel; type: cell-based; details: 4 days culture
Experimental: The compound potency determination was performed by culturing 19 small cell lung cancer cell lines […] for 4 days at 37 degrees C. at 5% CO2 in humidified incubators in the presence of serially diluted (trans)-N1-((1R,2S)-2-phenylcyclopropyl)cyclohexane-1,4-diamine bis-hydrochloride.
As a positive control for cytotoxicity the Hsp90 inhibitor 17-N-allylamino-17-demethoxygeldanamycin (17-AAG, a geldanamycin analogue) was used as positive control in serial dilution. Each of the cell lines was propagated and tested in distinct optimized media as recommended by ATCC or cell line source.
Small cell lung cancer cell lines can be categorized as “classic” or “variant”, based on their enzymatic activities, cellular morphologies, and growth phenotypes (Desmond et al., Cancer Res (1985) 45(6):2913-2923; Shoemaker R. H., Nature Reviews Cancer […] 6:813-823). Classic cells lines express elevated levels of L-dopa decarboxylase, bombesin-like immunoreactivity, neuron-specific enolase, and the brain isozyme of creatine kinase; variant cell lines continue to express neuron-specific enolase and the brain isozyme of creatine kinase, but have undetectable levels of L-dopa decarboxylase and bombesin-like immunoreactivity. Unlike classic cell lines, some variant cell lines are amplified for and have increased expression of the c-myc (MYC)oncogene.
Depending on their responses to (trans)-N1-((1R,2S)-2-phenylcyclopropyl)cyclohexane-1,4-diamine bis-hydrochloride, cell lines are classified as either “sensitive” [5], defined as having EC50<0.05 μM, or “resistant”, defined as having EC50>=0.05 μM [R].

Compound	tumor growth inhibition [1]	Cell-based response, classic versus variant SCLC cell lines ([2]; p-value 0.0055)	variant cell lines [V] that are resistant ([2]; resistant = EC50>=0.05 μM)	classic cell lines [C] that are sensitive ([2]; sensitive = EC50<0.05 μM)
N[C@H]1CC[C@H](N[C@@H]2C[C@H]2c2ccccc2)CC1 [(trans)-N1-((1R,2S)-2-phenylcyclopropyl)cyclohexane-1,4-diamine]	34%			
N[C@H]1CC[C@H](N[C@@H]2C[C@H]2c2ccccc2)CC1 [(trans)-N1-((1R,2S)-2-phenylcyclopropyl)cyclohexane-1,4-diamine bis-hydrochloride]		greater in classic SCLC cell lines compared to variant SCLC cell lines	7 out of 8	9 out of 11
